# Results published in US6979682B2, “Platelet-activating factor antagonist inhibition of angiogenesis and tumor growth induced by basic fibroblast” (Board of Supervisors of Louisiana State University and …, priority 2001, dated 2005).
# Legend:
# 201T cells = test: in vitro cell growth assay, [3H]thymidine incorporation, 201T; type: cell-based, human
# Protocol: The human prostatic carcinoma cell line PC-3 was grown in RPMI 1640 (Life Technologies, Grand Island, […].) supplemented with 10% fetal bovine serum (“FBS”, Life Technologies). The human cell line 201T was established from a poorly differentiated lung adenocarcinoma, as previously described using the method of J. M. Siegfried et al., “Secretion of autocrine growth factors by cultured lung tumors: effects on neoplastic lung epithelial cells,” Lung Cancer, vol. 4, pp. 205–209 (1988). See also J. P. Hamide et al., “Percutaneous implantation of non-small cell lung carcinoma: technique and observations,” Academ. Radiolo., vol. 4, pp. 629–633 (1997). The cell line was grown in a medium conditioned for 48 hours by the cell line A549 (ATCC CCL-185) containing 1% FBS (HyClone Laboratories, Logan, Utah) as previously described in J. M. Siegfried, “Culture of primary lung tumors using medium conditioned by a lung carcinoma cell line,” J. Cell. Biochem., vol. 41, pp. 91–95 (1988). This medium is referred to as CM+1% FBS.
# PC-3 cells were exposed to 0, 0.1, 1, 2.5, 5, and 10 μM BN-50730 in RPMI medium supplemented with 10% FBS and [^3H]thymidine (Amersham Life Science, Arlington Heights, Ill.). 201T cells were exposed to 0, 0.1, 1, 2.5, 5, and 10 μM BN-50730 in CM+1% FBS supplemented with [^3H]thymidine. […] PC-3 and 201T cells were also exposed to 10 μM BN-50730 for 24, 48, 72 and 144 hours, and cell growth assessed as above.
# [1] = system: human umbilical vein endothelial cells (HUVEC); test: HUVEC proliferation, [3H]thymidine incorporation; type: cell-based
# Protocol: Human umbilical vein endothelial cells (“HUVEC”) were propagated in one of three growth media depending on the experimental conditions. HUVEC were maintained in endothelial basal medium (“EBM-2”) (Clonetics, Walkersville, Md.) supplemented with 2% FBS (Clonetics). HUVEC were also grown in endothelial growth medium (“EGM”) (Clonetics), which contained 3 mg/ml (protein content) bovine brain extract, 10 ng/ml EGF ([…]), 1 μg/ml hydrocortisone, 2% FBS, gentamicin, and amphotericin-B. HUVEC were likewise grown in EGM-2, supplemented with VEGF ([…]), R^3-IGF-1 (long recombinant-3 insulin-like growth factor-1), ascorbic acid, heparin, 2% FBS, EGF, bFGF, gentamicin, and amphotericin-B.
# Based on the above in vitro tumor data, the effect of BN-50730 on tumor growth is believed to result from inhibition of angiogenesis. To test this theory, the effect of BN-50730 on angiogenesis of HUVEC cells was measured using two growth media designed to induce rapid proliferation, EGM or EGM-2. HUVEC growth was measured by [^3H]thymidine incorporation into DNA.
# As many tumors are known to produce angiogenesis-inducing factors, an experiment was conducted to test for increased proliferation of HUVEC cells exposed to 201T-conditioned medium. 201T cells were allowed to condition basal medium (EBM supplemented with 2% FBS) for 48 hr. […] EGM-2 is a medium containing the growth factors bFGF, VEGF, IGF-1, and EGF.
# To characterize the inhibitory effects of BN-50730 on HUVEC proliferation, a series of growth assays was performed in which growth factors were either added or omitted singly from the growth medium in the presence or absence of BN-50730. The cells were grown in a medium supplemented with [^3H]thymidine, in either the presence or absence of BN-50730. Cells that proliferate will incorporate [^3H]thymidine into their DNA. In the first experiment, individual growth factors VEGF, IGF-1, bFGF, or EGF were added to EBM-2 supplemented with 2% FBS. […] This experiment supports the hypothesis that different cellular mechanisms use different peptide growth factors.
# In a subsequent experiment, mixtures of the growth factors were analyzed, with only one growth factor absent from the medium, and each of the other three were present, in the presence or absence of 10 μM BN-50730. […] However, no reduction was seen when bFGF was absent.
# bFGF = test: Western blot analysis of cell lysates for bFGF; type: cell-based, human; details: 5 μM, 18 hr prior to cell harvest
# Protocol: HUVEC, PC-3, and 201T cells were grown to 75% confluency in the appropriate growth media. BN-50730 (5 μM) or vehicle (DMSO) was added to each cell line 18 hr prior to cell harvest. Cells were washed three times in phosphate-buffered saline (“PBS”) and scraped into Lemely buffer which lacked bromophenol blue and β-mercaptoethanol (0.1 M NaCl, 0.01M Tris-HCl (pH 7.6), 0.001 M EDTA, 1 μg/ml aprotinin, 100 μg/ml phenylmethylsulfonyl flouride, 2% SDS, and 10% glycerol). The cell suspension was boiled for 10 min and then immediately stored at −20° C. Protein levels were quantified using a Bio-Rad Protein Assay (Bio-Rad, Hercules, Calif.). Protein samples (20 μg) were separated through a 10–20% denaturing gradient acrylamide gel in Tris-glycine buffer and transferred to nitrocellulose (Bio-Rad) by electrophoretic blotting. […] Primary antibody was detected using alkaline phosphatase-conjugated goat anti-mouse IgG (Bio-Rad).
# The methods were as in Example 1. Lysates were analyzed from HUVEC cells grown in the presence of DMSO (Lane 1) or 5 μM BN-50730 (Lane 2); PC-3 cells grown in the presence of DMSO (Lane 3) or 5 μM BN-50730 (Lane 4); and 201T cells grown in the presence of DMSO (Lane 5) or 5 μM BN-50730 (Lane 6). […]
smiles,measurement,setting,value
"COc1ccc(NC(=O)N2CCc3c(sc4c3C(c3ccccc3Cl)=NCc3nnc(C)n3-4)C2)cc1 [BN-50730, tetrahydro-4,7,8,10 methyl-1 (chloro-2 phenyl)-6 (methoxy-4 phenyl-carbomoyl)-9 pyrido [4′,3′-4,5] thieno [3,2-f] triazolo-1,2,4[4,3-α]diazepine-1,4]","201T cell growth, time course: onset of growth inhibition","201T cells; 10 μM, six-day time course",growth inhibition was manifested after 72 hr of exposure
same,"201T cell growth, time course curves treated vs untreated","201T cells; 10 μM, up to 144 hr, p=0.081, F-test",not statistically different
same,"201T cell growth, concentration response","201T cells; 0.01-10 μM for four days, p<0.005 at or above 1.0 μM",concentration-dependent reduction in growth
same,HUVEC growth in EGM or EGM-2 medium,"[1]; 5 μM, both growth conditions, p=0.001, Student's t-test",significantly reduced the growth of HUVEC
same,stimulation of HUVEC growth in 201T-conditioned medium or EGM-2 medium,"[1]; 5 μM, either medium",inhibited
same,HUVEC growth in medium containing EGF as single growth factor,"[1]; 10 μM, EBM-2 + 2% FBS + EGF",No difference
same,HUVEC growth in medium containing IGF-1 as single growth factor,"[1]; 10 μM, EBM-2 + 2% FBS + IGF-1",No difference
same,HUVEC growth in medium containing VEGF as single growth factor,"[1]; 10 μM, EBM-2 + 2% FBS + VEGF, p=0.036","small, but significant"
same,HUVEC growth in medium containing bFGF as single growth factor,"[1]; 10 μM, EBM-2 + 2% FBS + bFGF, p=0.0002",larger reduction
same,HUVEC growth in medium with bFGF absent,"[1]; 10 μM, VEGF, IGF-1 and EGF present",no reduction
same,"HUVEC growth in medium lacking only VEGF, IGF-1 or EGF","[1]; 10 μM, other three growth factors present",reduction in growth
same,production of bFGF by 201T and PC-3 cells,bFGF,does not inhibit the production of bFGF
